Assays:
6R-BH4 receptor [1] = molecular target: T1, 6R-BH4 receptor (Rattus norvegicus, UniProt P29476); experiment: Competitive binding test between various compounds and 13 nM [6-^3 H]6R-BH4, solubilized fraction of rat cerebellum; conditions: for affinity of the receptor to 6R-BH4 relative to its affinity to the compound (from IC50 data): 13 nM [6-^3 H]6R-BH4, solubilized fraction of rat cerebellum
T1 construct: solubilized fraction of rat cerebellum; from tissue; host or cells: rat cerebellum, P2 membrane fraction solubilized with CHAPS (not purified)
Experimental: The specificity of the receptor of the present invention in binding to 6R-BH4 can be confirmed by a competitive binding test with the use of various compounds at varying concentrations.
In this method, the above-mentioned compounds at varying concentrations (for example, biopterin as will be described in Example 6 hereinafter) are added as a ligand simultaneously with [6-^3 H]6R-BH4 to the reaction mixture and the reaction is performed. The ability of the receptor of the present invention to bind to 6R-BH4 will not be inhibited to any substantial extent by these ligands.
By using the solubilized fraction of rat cerebellum, a competitive binding test between various compounds at varying concentrations and 13 nM of [6-^3 H]6R-BH4 was carried out.
About 0.3 mg (protein) of the solubilized fraction obtained in Example 3 was incubated together with 13 nM of [6-^3 H]6R-BH4 in a 200 μl solution of 50 mM Tris hydrochloride (pH 7.4), 100 mM NaCl, 10 mM MgCl2, 2 mM ascorbic acid and 6 mM cysteine at 37° C. for 10 minutes. Then 3 mg/ml (final concentration) of bovine γ-globulin and 15% (final concentration) of polyethylene glycol 6000 were added to cease the reaction.
Next, the reaction mixture was cooled on ice for 10 minutes and then passed through a glass filter. After being washed 4 times with 4 ml portions of 8% polyethylene glycol and 10 mM Tris hydrochloride (pH 7.4), the filter was taken off and placed in a vial. 2 ml of ethanol and 8 ml of creasol (Nacalai Tesque) were added to the filter and the radioactivity on the filter was measured in a liquid scintillation counter.
The results thus obtained were referred to as total binding. Then various compounds at varying concentrations were added as a ligand simultaneously with [6-^3 H]6R-BH4 in the above procedure, and the reaction was effected.

6R-BH4 receptor [2] = molecular target: T1, 6R-BH4 receptor; experiment: Scatchard plot analysis of [6-^3 H]6R-BH4 binding to solubilized fraction of rat cerebellum
Experimental: The Scatchard plot analysis may be carried out, for example, as follows. In an appropriate buffer solution, for example, 50 mM Tris hydrochloride (pH 7.4), 100 mM NaCl, 10 mM MgCl2, 2 mM ascorbic acid and 6 mM cysteine solution, a fraction containing the receptor solubilized with CHAPS is incubated with [6-^3 H]6R-BH4 at various concentrations under appropriate conditions, for example, at 37° C. for 10 minutes. Then the radioactivity is measured by a conventional method and plotted. From the plots, Kd (dissociation constant) and Bmax are determined and employed as indicators of the affinity.
By using a determined amount of the solubilized fraction of rat cerebellum, Scatchard plot analysis with regard to the solubilized receptor protein of the present invention was performed by the conventional method. […]
The reaction mixture was cooled on ice for 10 minutes and then filtered through a glass filter. […] 2 ml of ethanol and 8 ml of creasol (Nacalai Tesque) were added to the filter and the radioactivity on the filter was measured in a liquid scintillation counter.
FIG. 4 is a graph showing the radioactivities which bound to the receptor when [6-^3 H]6R-BH4 was added at various concentrations to a determined amount of the solubilized receptor. […] Accordingly, the saturation of the specific binding can be calculated as the difference between the total and nonspecific bindings. […]

[3] = test system: release of neurotransmitter amines such as dopamine (DA), norepinephrine and serotonin; experiment: Release and liberation of neurotransmitters
[4] = molecular target: known enzymes which participate in the biosynthesis of 6R-BH4 or enzymes for which 6R-BH4 acts as a coenzyme; conditions: enzymes of 6R-BH4 biosynthesis or using 6R-BH4 as coenzyme; cited from earlier work
[5] = supplementation therapy; cited from earlier work

T1 sequence (P29476 whole entry): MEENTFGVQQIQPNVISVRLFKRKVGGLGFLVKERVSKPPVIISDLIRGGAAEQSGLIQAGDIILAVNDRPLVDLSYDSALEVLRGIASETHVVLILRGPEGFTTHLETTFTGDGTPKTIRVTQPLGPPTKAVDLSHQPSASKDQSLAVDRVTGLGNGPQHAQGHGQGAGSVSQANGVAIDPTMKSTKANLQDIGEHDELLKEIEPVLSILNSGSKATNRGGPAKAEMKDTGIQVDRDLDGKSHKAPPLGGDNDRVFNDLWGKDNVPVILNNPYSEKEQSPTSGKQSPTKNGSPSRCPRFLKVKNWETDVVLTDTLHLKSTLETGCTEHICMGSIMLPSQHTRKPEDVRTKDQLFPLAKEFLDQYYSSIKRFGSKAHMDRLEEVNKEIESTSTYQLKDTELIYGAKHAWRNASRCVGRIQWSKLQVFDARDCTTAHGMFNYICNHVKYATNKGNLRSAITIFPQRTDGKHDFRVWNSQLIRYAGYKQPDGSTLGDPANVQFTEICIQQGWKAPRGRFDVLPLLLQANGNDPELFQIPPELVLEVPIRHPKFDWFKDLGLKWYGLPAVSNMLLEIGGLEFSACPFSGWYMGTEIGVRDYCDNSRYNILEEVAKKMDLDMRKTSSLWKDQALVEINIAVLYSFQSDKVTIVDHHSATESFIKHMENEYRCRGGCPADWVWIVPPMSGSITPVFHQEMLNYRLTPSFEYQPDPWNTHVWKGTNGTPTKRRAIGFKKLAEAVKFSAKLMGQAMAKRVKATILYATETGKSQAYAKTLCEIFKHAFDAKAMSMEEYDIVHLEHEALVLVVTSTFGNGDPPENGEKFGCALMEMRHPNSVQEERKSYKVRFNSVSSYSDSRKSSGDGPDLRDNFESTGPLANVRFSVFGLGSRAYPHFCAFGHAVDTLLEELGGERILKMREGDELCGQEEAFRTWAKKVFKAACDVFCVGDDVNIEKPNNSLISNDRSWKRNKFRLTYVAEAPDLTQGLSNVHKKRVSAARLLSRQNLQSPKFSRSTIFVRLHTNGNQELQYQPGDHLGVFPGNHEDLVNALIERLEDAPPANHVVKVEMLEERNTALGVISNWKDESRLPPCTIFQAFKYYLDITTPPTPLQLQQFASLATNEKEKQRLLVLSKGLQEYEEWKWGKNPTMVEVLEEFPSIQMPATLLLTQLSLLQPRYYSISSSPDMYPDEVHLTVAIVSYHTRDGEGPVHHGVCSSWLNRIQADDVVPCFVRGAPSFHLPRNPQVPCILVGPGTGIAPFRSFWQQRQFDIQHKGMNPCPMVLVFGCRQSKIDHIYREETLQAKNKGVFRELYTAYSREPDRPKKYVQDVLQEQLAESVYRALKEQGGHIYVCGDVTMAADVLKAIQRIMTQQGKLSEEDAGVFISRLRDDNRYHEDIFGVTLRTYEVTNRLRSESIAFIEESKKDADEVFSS

## Nc1nc2c(c(=O)[nH]1)NC(CNc1ccc(C(=O)N[C@@H](CCC(=O)O)C(=O)O)cc1)CN2 (stereo partly drawn) [FAH4, tetrahydrofolic acid]
6R-BH4 receptor [1]; competitive binding, solubilized fraction of rat cerebellum
  binding ability to the receptor: does not show any substantial binding ability

## C[C@H](O)[C@H](O)[C@@H]1CNc2nc(N)[nH]c(=O)c2N1 [6S-BH4]
6R-BH4 receptor [1]
  affinity of the receptor to 6R-BH4 relative to its affinity to the compound (from IC50 data): > 1,000 times

## C[C@H](O)[C@H](O)[C@H]1CNc2nc(N)[nH]c(=O)c2N1 [6R-BH4, 6(R)-L-erythro-5,6,7,8-tetrahydrobiopterin]
6R-BH4 receptor [2]
  Bmax (maximum binding constant): 550 fmol/mg protein
6R-BH4 receptor [2]; 37° C. for 10 minutes, read-out: Kd (dissociation constant)
  Kd: 21 nM
[3]
  liberation of glutamic acid, aspartic acid or GABA via DA and release of acetylcholine via serotonin: enhances
  release and liberation of neurotransmitter amines such as dopamine (DA), norepinephrine and serotonin: enhances
[4]
  Kd for known enzymes: several ten
[5]
  treatment of malignant phenylketonuria, juvenile Parkinson's disease and infantile autism of the dysbolism type: effective

## C[C@H](O)[C@H](O)C1=Nc2c(nc(N)[nH]c2=O)NC1 [BH2, 7,8-dihydrobiopterin]
6R-BH4 receptor [1]
  affinity of the receptor to 6R-BH4 relative to its affinity to the compound (from IC50 data): more than 50 times
